Assays:
[1] = system: human umbilical vein endothelial cells (HUVECs); assay: Serum depletion-induced apoptosis of HUVECs, MTT assay and cell morphology; format: cell-based; settings: serum-free medium, 5 or 10 μg/mL, 24 and 48 hours
Method: FIGS. 1a-1b and FIGS. 2a-2d show the result of screening Rk1 analogs that protect human umbilical vein endothelial cells (HUVECs) from serum depletion-induced apoptosis. HUVECs (3×10^5 cells/well) were seeded on a 24-well plate in M199 medium containing 20% fetal bovine serum. The next day, the cells were transferred to a medium containing 5 μg/mL (FIG. 1a) or 10 μg/mL (FIG. 1b) of the synthesized compound. Cell viability was determined by MIT assay 24 hours and 48 hours later. FIGS. 2a-2d show the result of observing cell morphologies. […]
Based on the previous researches performed by the inventors, the synthesized derivatives of Rk1 having steroid backbone and having the ability of inhibiting apoptosis of vascular endothelial cells and inhibiting permeability were screened. First, the ability of inhibiting apoptosis of vascular endothelial cells was measured. […] The next day, the cells were transferred to serum-free 11199 medium containing 5 μg/mL (FIG. 1a) or 10 μg/mL (FIG. 1b) of the compound synthesized in Synthesis Example 1-4, Cell viability was determined by MTT assay (Mosmann T, Journal of ImmunalogiCal Methods 65(1-2): 55-63 (1983); Cory A H, et al., Cancer Communications 3(7): 207-12 (1991)) 24 hours and 48 hours later.

HRECs [2] = assay: Permeability of HRECs on transwell filter, labelled sucrose; format: cell-based, human; settings: 10 μg/mL 60 minutes, with or without 20 ng/mL VEGF
Method: HRECs were seeded on a transwell filter. After reaching confluency, the cells were pretreated with Sac0601 (FIG. 10a) and Sac0504 (FIG. 10b) for 60 minutes before treating with 20 ng/ml. VEGF (1 hr). The permeability of HRECs was determined by measuring radiation of […] (1 μCi/μL) diffused below the transwell using a liquid scintillation counter.
The effect of Sac0601 and Sac0504 on vascular permeability was analyzed. HRECs were seeded on a transwell filter (Corning Costar). After reaching confluency, the cells were cultured in M199 medium containing 1% FBS for 3 hours and treated with 10 μg/mL. Sac0601 (FIG. 10a) or Sac0504 (FIG. 10b) for 60 minutes, with or without pretreatment with 20 ng/mL VEGF for 60 minutes. Then, [^3H]sucrose (1 μCi [0.037 MBq.]/μL or 50 μL (0.8 μCi [0.0296 MBq])/mL, Amersham Pharmacia) were added. 30 minutes later, radiation diffused below the transwell was measured using a liquid scintillation counter (Wallac, PerkinElmer). Measurement was made at least four locations.

HRECs [3] = assay: DNA fragmentation in serum-depleted HRECs; format: cell-based, human; settings: serum-free medium, 0.1-10 μg/mL, 48 hours
Method: HRECs (3×10^4 cells/well) were seeded on a 24-well plate in M199 medium containing 20% fetal bovine serum. The next day, the cells were transferred to a medium containing 0.1-10 μg/mL Sac0601 (FIG. 6a) or 0.1-10 μg/mL Sac0504 (FIG. 6b). DNA fragmentation was analyzed by TUNEL assay 48 hours later.
In addition, chromosomal fragmentation and nicking characteristic of apoptosis were monitored, HRECs (3×10^4 cells/well) were seeded on a 24-well plate in M199 medium (1 mL) containing 20% fetal bovine serum, Next day, the cells were transferred to serum-free M199 medium containing 0.1-10 μg/mL Sac0601 (FIG. 6a) or 0.1-10 μg/mL Sac0504 (FIG. 6b). 48 hours later, the cells were washed twice with PBS, fixed with 2% paraformaldehyde, and washed twice with PBS again, After adding 4′,6-diamidino-2-phenylindole-2HCl (DAPI; Calbiochem, USA) solution and reacting for 30 minutes in the dark, the cells were washed twice with PBS and degree of DNA fragmentation was observed under an optical microscope after covering with a cover glass.

HRECs [4] = assay: Restoration of TJ instability and cytoskeleton change induced by VEGF in HRECs; format: cell-based, human; settings: 20 ng/mL VEGF 1 hour, then 10 μg/mL 1 hour
Method: In FIGS. 9a-9b, confluent HRECs were stimulated with 20 ng/mL VEGF (1 hr) before treating with Sac0504 and Sac0601. The cells were then stained with anti-occludin antibody (FIG. 9a) and rhodamine phalloidin (FIG. 9b).
Confluent HRECs were treated with 20 ng/mL. VEGF for 1 hour and then with 10 μg/mL Sac0601 or Sac0504 for 1 hour. Subsequently, the cells were stained with anti-occludin antibody (FIG. 9a) or […] (FIG. 9b) as described above.

HRECs [5] = assay: VEGF-induced actin stress fibers in HRECs, rhodamine phalloidin staining; format: cell-based, human; settings: 10 μg/mL 1 hour, then 20 ng/mL VEGF 1 hour
Method: Confluent HRECs were treated with 10 μg/mL Sac0601 or Sac0504 for 1 hour and then with 20 ng/mL VEGF for 1 hour. Subsequently, the cells were fixed at room temperature for 20 minutes with 4% paraformaldehyde and washed 3 times with PBS (pH 7.4). Then, the cells were permeabilized with 0.1% Triton X-100/PBS and reacted with 0.1 mg/mL rhodamine phalloidin (Molecular Probes) for 1 hour. Then, the cells were observed under a fluorescence microscope (Olympus). […] The analysis of actin cytoskeleton was conducted also for the compounds synthesized in Synthesis Example 5. Both Sac0904 and Sac0902 exerted effects in a concentration-dependent manner on the actin cytoskeleton which is closely related with vascular permeability (FIG. 7c).

Row | SMILES | ability of inhibiting apoptosis (cell viability by MTT assay) [1] | permeability of the vascular endothelial cells (HRECs [2]) | DNA fragmentation (HRECs [3]) | change in actin structure and TJ stability at the cell-cell contacts induced by VEGF (HRECs [4]) | formation of actin stress fibers induced by VEGF (HRECs [5]) | formation of cortical actin ring structures (HRECs [5])
1 | CC(=O)OCC1OC(OC2CCC3(C)C(=CCC4C3CCC3(C)C(C(C)CCCC(C)C)CCC43)C2)C=CC1OC(C)=O (stereo not drawn) [Sac0601] | comparable to that of Rk1 | inhibiting permeability of the vascular endothelial cells | inhibit DNA fragmentation | can be restored | inhibited the formation of actin stress fibers induced by VEGF | increased the formation of cortical actin ring structures
2 | CC(C)CCC[C@@H](C)[C@H]1CC[C@H]2[C@@H]3CC=C4C[C@@H](OC5CCCCO5)CC[C@]4(C)[C@H]3CC[C@]12C (stereo partly drawn) [Sac0504] | comparable to that of Rk1 | inhibiting permeability of the vascular endothelial cells | inhibit DNA fragmentation | can be restored | inhibited the formation of actin stress fibers induced by VEGF | increased the formation of cortical actin ring structures

— patent publication US8889840B2, “Vascular leakage inhibitor” (Industry-Academic Cooperation Foundation, Yonsei University, priority 2009, dated 2014)
